The record followed here is patent US4122077A, “Somatostatin analogs” (American Home Products Corporation, priority 1977, dated 1978).

Molecules are shown by their SMILES. Where a SMILES comes first, the peptide text is derived from it. Bridges are numbered along the chain shown (N, C = ends). [ ]: non-standard residue; d: D form.

One assay concerns insulin. Nature of the assay: Suppression of growth hormone, glucagon and insulin (arginine-stimulated, nembutal rats): insulin. As to conditions: arginine challenge. It is filed as in vivo. The protocol: (§1) Albino male rats are arranged in three groups (nine rats/group) and injected i.p. with nembutal at 50mg/kg. 15 minutes after the nembutal injection they are injected s.c. according to group with (a) test compound, typically 10-2000 μg/kg.; (b) SRIF 200 μg/kg.; or (c) physiological saline. 10 minutes later 0.5 ml. of arginine (300 mg/ml., pH 7.2) is injected into the heart. The rats are decapitated 5 minutes after receiving the arginine, and the blood is collected into Trasylol-EDTA. Appropriate aliquots are then assayed for growth hormone, glucagon and insulin. […] Comparisons between control and experimental values are statistically evaluated by the analysis of variants method and statistical significance (p) at 0.05 or lower is used as the index of activity.

In another assay the test system is growth hormone (GH). Briefly: Suppression of growth hormone (duration of activity after sc injection). It is filed as in vivo, rats. The settings on record: 1000 μg/kg. sc, rats. On the procedure:
A subcutaneous (sc) injection of peptide solubilized or suspended in physiological saline, is given to Charles River CD® nonfasted male rats. Matched saline control solution sc injected rats serve as control animals so that every experimental rat is paired with a control rat. The rats are kept in separate cages and 20 minutes before the end of the test time period they are given an intraperitoneal (i.p.) injection of Nembutal® at a dose of 50 mg/kg. Blood samples are obtained by cardiac puncture and the plasma separated for the radioimmunoassay of growth hormone (GH) concentration (ng/ml.). Time periods after injection of 2, 4, 5, and 6 hours are generally used to test the duration of the activity of the peptide to suppress circulating peripheral GH levels. Comparisons between control and experimental GH values at each time are evaluated by the Student "t" test and statistical significance (p) at the 0.05 level or lower is used as the index of activity.

The test system of a further assay is growth hormone. Nature of the assay: Suppression of growth hormone, glucagon and insulin (arginine-stimulated, nembutal rats): GH. Format: in vivo. The settings on record: arginine challenge (table 5). The protocol:
as §1

For another assay, the system named is glucagon. Nature of the assay: Suppression of growth hormone, glucagon and insulin (arginine-stimulated, nembutal rats): glucagon. Format: in vivo. As to conditions: arginine challenge. On the procedure: as §1

On to `C[C@@H](O)[C@@H]1NC(=O)[C@H](CCCCN)NC(=O)[C@@H](Cc2c[nH]c3ccccc23)NC(=O)[C@H](Cc2ccccc2)NC(=O)[C@H](Cc2ccccc2)NC(=O)[C@@H](Cc2ccc(O)cc2)NC(=O)[C@@H](CCCNC(=N)N)NC(=O)[C@@H](N)CSSC[C@H](C(=O)O)NC(=O)[C@H](CO)NC(=O)[C@H]([C@@H](C)O)NC(=O)[C@H](Cc2ccccc2)NC1=O` [H, L-Cysteinyl-D-Arginyl-D-Tyrosyl-L-Phenylalanyl-L-Phenylalanyl-D-Tryptophyl-L-Lysyl-L-Threonyl-L-Phenylalanyl-L-Threonyl-L-Seryl-D-Cysteine Cyclic (1-12)-Disulfide] (H-C[dR][dY]FF[dW]KTFTS[dC]-OH; disulfide 1-12), for which the Insulin in the assay with insulin (25 μg/kg. s.c.) was 128 ± 11 μU/ml. In the assay with growth hormone (GH), the “GH, 2 Hours” value is 75 ± 4 ng/mL and the “GH, 4 Hours” value is 144 ± 21 ng/mL. The molecule further yielded a GH with growth hormone (25 μg/kg. s.c.) of 23 ± 4. The molecule also displayed a Glucagon in the assay with glucagon (25 μg/kg. s.c.) of 56 ± 6 pg/mL.
As for `C[C@@H](O)[C@@H]1NC(=O)[C@H](Cc2ccccc2)NC(=O)[C@H]([C@@H](C)O)NC(=O)[C@H](CCCCN)NC(=O)[C@@H](Cc2c[nH]c3ccccc23)NC(=O)[C@H](Cc2ccccc2)NC(=O)[C@H](Cc2ccccc2)NC(=O)[C@@H](CCC(=O)O)NC(=O)[C@@H](Cc2ccc(O)cc2)NC(=O)[C@@H](N)CSSC[C@@H](C(=O)O)NC(=O)[C@H](CO)NC1=O` [J, L-Cysteinyl-D-Tyrosyl-D-Glutamyl-L-Phenylalanyl-L-Phenylalanyl-D-Tryptophyl-L-Lysyl-L-Threonyl-L-Phenylalanyl-L-Threonyl-L-Seryl-L-Cysteine Cyclic (1-12)-Disulfide] (H-C[dY][dE]FF[dW]KTFTSC-OH; disulfide 1-12), in the assay with insulin (100 μg/kg. s.c.), the Insulin is 263 ± 28 μU/ml. In the assay on growth hormone (GH), the “GH, 2 Hours” value came to 311 ± 68 ng/mL and the “GH, 4 Hours” value amounted to 179 ± 39 ng/mL. The GH with growth hormone (100 μg/kg. s.c.) is given as 128 ± 24. This molecule also displayed a Glucagon in the assay on glucagon (100 μg/kg. s.c.) of 45 ± 4 pg/mL.
